In paper PMC7251097, “Aspartate/asparagine-β-hydroxylase: a high-throughput mass spectrometric assay for discovery of small molecule inhibitors” (Scientific Reports, 2020):
Structures can show the parent of a compound that is named as a salt. Where two headings read alike, the source gives them in different places.

Target: T1, His6-AspH315–758 (human aspartate/asparagine-β-hydroxylase, AspH) (Homo sapiens, UniProt Q12797)
T1 construct: N-Terminally His6-tagged human AspH315–758 (His6-AspH315–758) was produced in E. coli BL21 (DE3) cells; made in house; host or cells: E. coli BL21 (DE3), pET-28a(+) vector
T1 sequence (Q12797 315-758): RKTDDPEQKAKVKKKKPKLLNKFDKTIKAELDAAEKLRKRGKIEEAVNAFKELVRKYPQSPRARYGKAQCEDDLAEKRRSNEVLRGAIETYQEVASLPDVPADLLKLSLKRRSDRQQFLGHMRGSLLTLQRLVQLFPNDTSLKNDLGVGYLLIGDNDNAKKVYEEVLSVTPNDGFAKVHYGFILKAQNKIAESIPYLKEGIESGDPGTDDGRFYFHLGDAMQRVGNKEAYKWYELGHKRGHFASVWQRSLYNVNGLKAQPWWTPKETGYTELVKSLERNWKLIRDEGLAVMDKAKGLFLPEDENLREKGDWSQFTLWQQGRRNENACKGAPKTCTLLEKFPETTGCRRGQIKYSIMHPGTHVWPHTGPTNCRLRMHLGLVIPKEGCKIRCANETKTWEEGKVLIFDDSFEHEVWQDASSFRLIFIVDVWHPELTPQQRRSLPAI
Test: SPE-MS AspH inhibition assay (LOPAC screen at fixed 20 μM and IC50 dose-response), hydroxylation of cyclic peptide hFX-CP101–119
Type: biochemical

[1] = LOPAC compound at 20uM, plate 2, normalised to DMSO and 2,4-PDCA controls, read-out: Plate 2 (% inhibition)
[2] = LOPAC compound at fixed 20 uM, plate 1, normalised to DMSO and 2,4-PDCA controls
[3] = LOPAC compound at fixed 20 uM, substrate conversion, plate 1

Row | Structure (SMILES) | Plate 1 (% inhibition) [2] | Plate 1 (% conversion) [3] | other results
1 | C[C@@]12C(=O)OC(=O)[C@]1(C)[C@H]1CC[C@@H]2O1 [Cantharidin] | – | – | Plate 1 (% conversion): 17.40%; Plate 1 (% inhibition): 55.02%
2 | Oc1cc2c(cc1O)CN(C(=S)NCCc1ccc(Cl)cc1)CCC2 [Capsazepine, capsazepine, reference compound] | – | – | IC50 (50 nM His6-AspH315–758, 1.0 μM hFX-CP101–119, 3 μM 2OG, 2 μM Fe(II), 50 mM HEPES pH 7.5, 20 °C, mean ± SD, n = 2 (2,4-PDCA n = 10), read-out: IC50): 3.41 ± 0.28 µM; inhibition at 20 µM (AspH activity, fixed compound concentration 20 μM, initial LOPAC screen, 0.5%v/v DMSO, read-out: Inhibition at 20 µM [%]): 99.7%; Plate 2 (% conversion) (LOPAC compound at 20uM, plate 2, conversion of substrate peptide): 2.59%; inhibition at 20 µM [1]: 99.7%
3 | C[C@H](CS)C(=O)N1CCC[C@H]1C(=O)O [Captopril] | – | – | Plate 1 (% conversion): 35.34%; Plate 1 (% inhibition): 1.58%
4 | CCN(CC)CCOCCOC(=O)C1(c2ccccc2)CCCC1 [Carbetapentane citrate] | 80.85% | 8.72% | –
5 | CCCCCCNC(=O)n1cc(F)c(=O)[nH]c1=O [Carmofur] | – | – | % conversion: 37.69%; inhibition at 20 µM (LOPAC Plate 4, compound at 20 uM, read-out: % inhibition): -3.58%
6 | O=NN(CCCl)C(=O)NCCCl [Carmustine] | -10.30% | – | Plate 1 (% conversion): 39.33%
7 | CCN(CC)CCn1c(=O)c(Cc2ccc(OC)cc2)nc2ccccc21.Cl [Caroverine hydrochloride] | – | – | % conversion (LOPAC Plate 4, compound at 20 uM, substrate conversion): 34.53%
8 | CO[C@@]1(NC(=O)CSCC#N)C(=O)N2C(C(=O)O)=C(CSc3nnnn3C)CS[C@@H]21 [Cefmetazole sodium] | -3.81% | 37.15% | –
9 | Cc1ccc(-c2cc(C(F)(F)F)nn2-c2ccc(S(N)(=O)=O)cc2)cc1 [Celecoxib] | – | – | Plate 5 (% inhibition) (plate 5 (Pfitzer), test compounds at fixed 20 μM): -13.08%; Plate 5 (% conversion) (plate 5 (Pfitzer), test compounds at fixed 20 μM, mean conversion DMSO 32.88): 40.77%
10 | CN(C)CCOC(=O)COc1ccc(Cl)cc1 [Centrophenoxine hydrochloride] | – | – | Plate 1 (% conversion): 36.66%; Plate 1 (% inhibition): -2.35%
11 | O=C(O)COCCN1CCN(C(c2ccccc2)c2ccc(Cl)cc2)CC1 (stereo not drawn) [Cetirizine dihydrochloride] | – | – | inhibition at 20 µM [1]: -5.77%
12 | COc1ccc2c(c[n+](C)c3c4cc5c(cc4ccc23)OCO5)c1OC [Chelerythrine chloride] | 8.68% | – | Plate 1 (% conversion): 32.96%

More lines, main results first:

Row | Plate 1 (% inhibition) [2] | Plate 1 (% conversion) [3] | Structure (SMILES) | other results
13 | -3.17% | 36.94% | C[N+](C)(C)CCOC(N)=O [Carbachol] | –
14 | 0.72% | 35.63% | NC(=O)N1c2ccccc2C=Cc2ccccc21 [Carbamazepine] | –
15 | 23.98% | 27.82% | N[C@@H](C(=O)N[C@@H]1C(=O)N2C(C(=O)O)=C(Cl)CS[C@H]12)c1ccccc1 [Cefaclor] | –
16 | 9.95% | 32.53% | Cc1nnc(SCC2=C(C(=O)O)N3C(=O)[C@@H](NC(=O)Cn4cnnn4)[C@H]3SC2)s1 [Cefazolin sodium] | –
17 | 3.71% | 34.63% | CO/N=C(\C(=O)N[C@@H]1C(=O)N2C(C(=O)O)=C(COC(C)=O)CS[C@H]12)c1csc(N)n1 [Cefotaxime sodium] | –
18 | 64.70% | 14.14% | NC(=O)c1cc[n+](CC2=C(C(=O)[O-])N3C(=O)[C@@H](NC(=O)C(c4ccccc4)S(=O)(=O)[O-])[C@H]3SC2)cc1.O.[Na+] (stereo partly drawn) [Cefsulodin sodium salt hydrate] | –
19 | -8.63% | 38.77% | CO/N=C(\C(=O)N[C@@H]1C(=O)N2C(C(=O)O)=C(CSc3nc(=O)c(=O)[nH]n3C)CS[C@H]12)c1csc(N)n1 [Ceftriaxone sodium] | –
20 | 14.49% | – | CC1=C(C(=O)O)N2C(=O)[C@@H](NC(=O)[C@H](N)c3ccccc3)[C@H]2SC1.O [Cephalexin hydrate] | –
21 | 9.86% | 32.56% | CC(=O)OCC1=C(C(=O)O)N2C(=O)[C@@H](NC(=O)Cc3cccs3)[C@H]2SC1 [Cephalothin sodium] | –
22 | 23.03% | 28.14% | CC1=C(C(=O)O)N2C(=O)[C@@H](NC(=O)[C@H](N)C3=CCC=CC3)[C@H]2SC1 [Cephradine] | –
23 | 48.94% | 19.44% | O=C(O)c1cc(O)cc(C(=O)O)n1 [Chelidamic acid] | –
